The values below come from publication PMC8907193, “The YΦ motif defines the structure-activity relationships of human 20S proteasome activators” (Nature Communications, 2022).

Square brackets hold non-standard residues; d marks the D form. Ends that are not written are not given here. Peptide text beside a SMILES is read from it. Cha = N[C@@H](CC1CCCCC1)C(=O)O

The test system of data set [1] is T1, human 20S proteasome (h20S).
T1 construct: purchased Proteasome Center
The experiment in a line: h20S stimulation, hydrolysis of suc-LLVY-amc (chymotryptic-like activity). It is filed as biochemical.
Method: Human 20S (h20S) (final concentration of 4 nM) was incubated in the presence or absence of activators (peptides, 0.2–600 μM; MBP 0.2–400 μM; PA26, 0.04–3500 nM) at ambient temperature for 5 min. Substrate (suc-LLVY-amc, 10 μM; boc-LRR-amc, 20 μM; or FAM-LFP, 100 nM) was added immediately before reading. Fluorescence intensity of suc-LLVY-amc and boc-LRR-amc (excitation, 355 nm; emission, 440 nm; cutoff 435 nm) or FAM-LFP (excitation, 490 nm; emission, 520 nm; cutoff, 515 nm) were monitored at 30 to 60 s intervals for 30 min at 25 °C using a Spectramax M5 microplate reader (Molecular Devices; SoftMax Pro 6.5.1). The hydrolysis rate was calculated from the slope of the curve between 100 and 500 s (500 and 1000 s for boc-LRR-amc) in arbitrary units (RFU per s).
Data were processed and fit in GraphPad Prism 8.1.2. The baseline hydrolysis was normalized to the total mean activity for the lowest concentration of every activator assayed in a given plate and the maximal hydrolysis was normalized as reported. The normalized activity was plotted relative to log10(activator). Data was fit to the model for log(agonist) versus response (variable slope). In Eq. (1), X = log[activator, μM] except for PA26-based activators, which are in nanomolar.1 Y=Bottom+(Top−Bottom)/1+10^((logEC50−X)×Hillslope)

A short description of data set [2]: Visual inspection of 10 mM DMSO stocks (solubility). As to conditions: 10 mM in DMSO (Suppl Fig 1e). The format is physicochemical.

Turning to `CC(C)C[C@H](NC(=O)[C@@H](N)CC(N)=O)C(=O)N[C@@H](CO)C(=O)N[C@@H](Cc1ccc(O)cc1)C(=O)N[C@@H](CC1CCCCC1)C(=O)N[C@H](C(=O)O)[C@@H](C)O` [Opt5^Y4] (H-NLSY[Cha]T-OH; N-terminus and C-terminus assumed), the “improvement of potency relative to Opt5^YY” value in data set [1] (ratio of EC50) was ~ 2 fold. For the same compound, the “stimulation of h20S, result in words” value in data set [1] (suc-LLVY-amc turnover) is given as “completely inactivated”. Take ANLQYFA [hRpt5-YP2F]: the “solubility of DMSO stock, visual” value in data set [2] is “insoluble”.
